# Laboratory results published in ChEMBL document CHEMBL2034957, “Synthesis and antitumor evaluation of novel benzo[d]pyrrolo[2,1-b]thiazole derivatives” (Eur J Med Chem, 2012).
# Activity calls are given as the source filed them. The calls are words filed in the database; no cut-off is given here.
# Columns and labels:
# [1] = Cytotoxicity against human OECM1 cells after 72 hrs by alamar blue assay; assay type: functional, cell-based; conditions: OECM1, 72 h
# [2] = test system: CCRF-CEM; assay: Ratio of IC50 for human vinblastine-resistant CCRF-CEM cells to IC50 for human CCRF-CEM cells; assay type: functional
# [3] = test system: HCT-116; assay: Cytotoxicity against human HCT116 cells after 72 hrs by SRB assay; assay type: functional, cell-based; conditions: HCT-116, 72 h
# [4] = test system: CCRF-CEM; assay: Cytotoxicity against human vinblastine-resistant CCRF-CEM cells after 72 hrs by XTT assay; assay type: functional, cell-based
# [5] = test system: PC-3; assay: Cytotoxicity against human PC3 cells after 72 hrs by alamar blue assay; assay type: functional, cell-based; conditions: PC-3, 72 h
# [6] = test system: CCRF-CEM; assay: Ratio of IC50 for human taxol-resistant CCRF-CEM cells to IC50 for human CCRF-CEM cells; assay type: functional
# [7] = test system: CCRF-CEM; assay: Cytotoxicity against human taxol-resistant CCRF-CEM cells after 72 hrs by XTT assay; assay type: functional, cell-based
# [8] = test system: CCRF-CEM; assay: Cytotoxicity against human CCRF-CEM cells after 72 hrs by XTT assay; assay type: functional, cell-based
# [9] = Cytotoxicity against human U87 cells after 72 hrs by alamar blue assay; assay type: functional, cell-based, U-87MG ATCC; conditions: U-87 MG
# [10] = test system: MX1; assay: Cytotoxicity against human MX1 cells after 72 hrs by SRB assay; assay type: functional, cell-based; conditions: MX1, 72 h
# [11] = Cytotoxicity against human H1299 cells after 72 hrs by alamar blue assay; assay type: functional, cell-based; conditions: NCI-H1299, 72 h
# [12] = test system: Nucleic Acid; assay: Induction of Escherichia coli pEGFP-N1 DNA interstrand cross-linking at 1 to 20 uM after 2 hrs using ethidium bromide staining by alkaline agarose gel shift assay; assay type: nucleic-acid assay
# [13] = Cell cycle arrest in human H1299 cells at 18 uM after 24 hrs by propidium iodidee-based flow cytometry; assay type: functional; conditions: NCI-H1299
# [14] = Cell cycle arrest in human H1299 cells assessed as G2/M phase cells at 4.5 to 9 uM after 24 hrs by propidium iodidee-based flow cytometry; assay type: functional; conditions: NCI-H1299
# [15] = Cell cycle arrest in human H1299 cells at 18 uM after 48 hrs by propidium iodidee-based flow cytometry; assay type: functional; conditions: NCI-H1299
# [16] = Cell cycle arrest in human H1299 cells assessed as reduction in G2/M phase cells at 4.5 to 9 uM after 48 hrs by propidium iodidee-based flow cytometry; assay type: functional; conditions: NCI-H1299
# [17] = test system: MX1; assay: Antitumor activity against human MX1 cells xenografted in athymic nude mouse assessed as tumor remission at 20 mg/kg, iv administered q2d for 3 days followed by 25 mg/kg, iv q2d for 4 days measured on day 28 post-tumor implantation; assay type: functional, organism-based
# [18] = test system: Mus musculus; assay: Toxicity in athymic nude mouse assessed as weight loss at 20 mg/kg, iv administered q2d for 3 days followed by 25 mg/kg, iv q2d for 5 days; assay type: organism-based; conditions: in vivo
# [19] = test system: MX1; assay: Antitumor activity against human MX1 cells xenografted in athymic nude mouse assessed as tumor remission at 20 mg/kg, iv administered q2d for 3 days followed by 25 mg/kg, iv q2d for 5 days measured on day 26 post-tumor implantation; assay type: functional, organism-based
# [20] = test system: MX1; assay: Antitumor activity against human MX1 cells xenografted in athymic nude mouse assessed as tumor remission at 20 mg/kg, iv administered q2d for 3 days followed by 25 mg/kg, iv q2d for 4 days measured on day 26 post-tumor implantation; assay type: functional, organism-based
# [21] = Cell cycle arrest in human H1299 cells assessed as increase in sub-G1 phase cells at 4.5 to 9 uM after 24 hrs by propidium iodidee-based flow cytometry; assay type: functional; conditions: NCI-H1299
# [22] = Toxicity in iv dosed athymic nude mouse assessed as mortality; assay type: organism-based; conditions: in vivo
# [23] = test system: Mus musculus; assay: Toxicity in athymic nude mouse assessed as weight loss at 20 mg/kg, iv administered q2d for 3 days followed by 25 mg/kg, iv q2d for 4 days; assay type: organism-based; conditions: in vivo
# [24] = test system: Mus musculus; assay: Toxicity in athymic nude mouse assessed as weight loss at 30 mg/kg, iv administered q2d for 4 days; assay type: organism-based; set-up: dose 30 mg/kg, route intravenous; conditions: in vivo, 96 h
# [25] = test system: Mus musculus; assay: Toxicity in athymic nude mouse assessed as weight loss at 10 mg/kg, iv administered q2d for 4 days; assay type: organism-based; set-up: dose 10 mg/kg, route intravenous; conditions: in vivo, 96 h
# [26] = Cell cycle arrest in human H1299 cells assessed as accumulation of G1 phase cells at 25 uM at 48 hrs by propidium iodideee-based flow cytometry; assay type: functional; conditions: NCI-H1299
# [27] = Cell cycle arrest in human H1299 cells assessed as reduction in G1 phase cells at 25 uM at 24 hrs by propidium iodideee-based flow cytometry; assay type: functional; conditions: NCI-H1299
# [28] = test system: MX1; assay: Antitumor activity against human MX1 cells xenografted in athymic nude mouse assessed as tumor suppression at 10 mg/kg, iv administered q2d for 4 days; assay type: functional
# [29] = test system: MX1; assay: Antitumor activity against human MX1 cells xenografted in athymic nude mouse assessed as tumor suppression at 30 mg/kg, iv administered q2d for 4 days; assay type: functional
# [30] = Cell cycle arrest in human H1299 cells assessed as accumulation of sub-G1 phase cells after 24 to 48 hrs by propidium iodidee-based flow cytometry; assay type: functional; conditions: NCI-H1299
# [31] = Cell cycle arrest in human H1299 cells assessed as accumulation of G2/M phase cells after 24 to 48 hrs by propidium iodidee-based flow cytometry; assay type: functional; conditions: NCI-H1299
# [32] = Cell cycle arrest in human H1299 cells assessed as reduction in G1 phase cells after 24 to 48 hrs by propidium iodidee-based flow cytometry; assay type: functional; conditions: NCI-H1299
Structure (SMILES),IC50 [1],Ratio IC50 [2],IC50 [3],IC50 [4],IC50 [5],Ratio IC50 [6],IC50 [7],IC50 [8],IC50 [9],IC50 [10],IC50 [11],Activity [12],further results
CC(C)NC(=O)OCc1c(COC(=O)NC(C)C)c2sc3ccccc3n2c1-c1ccc(F)c(F)c1,15.1 µM,0.9,410 nM,300 nM,29.6 µM,0.57,190 nM,330 nM,74.9 µM,1000 nM,30.8 µM,–,–
CCNC(=O)OCc1c(COC(=O)NCC)c2sc3ccccc3n2c1-c1ccc(OC)cc1,9.39 µM,2.2,–,420 nM,17.9 µM,1.9,370 nM,190 nM,29.5 µM,–,8.85 µM,Active,–
CCNC(=O)OCc1c(COC(=O)NCC)c2sc3ccccc3n2c1-c1ccc(F)c(F)c1,14.6 µM,1.47,1100 nM,310 nM,19.3 µM,1.61,340 nM,210 nM,38.5 µM,1490 nM,10.3 µM,–,–
CC(C)NC(=O)OCc1c(COC(=O)NC(C)C)c2sc3ccccc3n2c1-c1ccc(Cl)cc1,7.54 µM,5.25,1700 nM,420 nM,13.7 µM,4.87,390 nM,80 nM,29 µM,1190 nM,8.75 µM,Active,Activity [13]: Active; Activity [14]: Active; Activity [15]: inactive; Activity [16]: Active; Activity [17]: Active; Activity [18]: 10%; Activity [19]: Active; Activity [20]: Active; Activity [21]: Active; MTD [22]: 20 mg/kg
COc1ccc(-c2c(COC(=O)NC(C)C)c(COC(=O)NC(C)C)c3sc4ccccc4n23)cc1,7.23 µM,1.47,–,250 nM,17.5 µM,1.17,170 nM,140 nM,60.9 µM,–,8.19 µM,Active,–
OCc1c(CO)c2sc3ccccc3n2c1-c1ccc(F)cc1,6.03 µM,3.5,9590 nM,3720 nM,13.8 µM,2.41,2560 nM,1060 nM,15.5 µM,2770 nM,9.27 µM,Active,–
Cc1c(COC(=O)NC(C)C)c(COC(=O)NC(C)C)c2sc3ccccc3n12,–,1.92,970 nM,250 nM,–,1.69,220 nM,130 nM,–,130 nM,9.7 µM,–,–
COc1ccc(-c2c(CO)c(CO)c3sc4ccccc4n23)cc1,5 µM,2.3,–,2630 nM,8.81 µM,1.9,2170 nM,1130 nM,18.1 µM,–,9.94 µM,Active,–
Cc1c(CO)c(CO)c2sc3ccccc3n12,–,1.91,4440 nM,1860 nM,–,1.93,1880 nM,970 nM,–,7100 nM,–,–,–
CC(C)NC(=O)OCc1c(COC(=O)NC(C)C)c2sc3ccccc3n2c1-c1ccc(F)cc1,11.9 µM,3.8,350 nM,190 nM,24.2 µM,3.2,160 nM,50 nM,53.5 µM,620 nM,33 µM,Active,Activity [23]: 20%; Activity [24]: 20%; Activity [25]: 20%
OCc1c(CO)c2sc3ccccc3n2c1-c1ccc(Cl)cc1,14.6 µM,1.56,9260 nM,4090 nM,20.4 µM,2,5220 nM,2610 nM,20.7 µM,10400 nM,12.4 µM,Active,Activity [26]: Active; Activity [27]: Active
CCNC(=O)OCc1c(COC(=O)NCC)c2sc3ccccc3n2c1-c1ccc(F)cc1,11.5 µM,6.42,520 nM,450 nM,23.7 µM,5.42,380 nM,70 nM,29.2 µM,480 nM,13.6 µM,Active,Activity [23]: 20%; Activity [28]: >99%; Activity [24]: 20%; Activity [25]: 20%
CCNC(=O)OCc1c(COC(=O)NCC)c2sc3ccccc3n2c1-c1ccc(Cl)cc1,11.6 µM,1.85,700 nM,390 nM,13.8 µM,1.52,320 nM,210 nM,26 µM,910 nM,4.33 µM,Active,Activity [29]: >99%; Activity [30]: Active; Activity [31]: Active; Activity [23]: 20%; Activity [24]: 20%; Activity [32]: Dose-dependent effect; Activity [25]: 20%
